System: HSV-2 (CEU-G)
Assay: Antiherpes activity, HSV-2 (CEU-G) (Example 10)
Format: cell-based
Conditions: Human alphaherpesvirus 2, read-out: plaque-forming units as % of control
Description: IPdR and 5-bromo-2-pyrimidinone-2-deoxyribonucleoside (BrPdR) were tested for antiherpes activity according to procedures described by Cheng, Y.-C., et al. Antimicrob. Agents Chemother (1976) 10, 119.

**Q.** `O=c1ncc(I)cn1[C@H]1C[C@H](O)[C@@H](CO)O1` [IPdR, 1-(2-Deoxy-β-D-Ribofuranosyl)-5-iodo-2-pyrimidinone] was tested. Which activity at 100 µM did it give?
**A.** The activity at 100 µM was 9.3%.
